Data taken from patent EP1081186A1, “Stabilized aqueous acrylamide polymer composition and photographic element containing the composition” (EASTMAN KODAK COMPANY (a New Jersey corporation), priority 1999, dated 2001).

Test: Inherent viscosity stability of aqueous acrylamide polymer solutions on keeping (capillary viscometer)
Type: physicochemical
Settings: 0.33 % added to 15 % copolymer solution; at room temperature and at 50°C; compared with isopropanol
Method: In the following examples the inherent viscosities of the solutions were measured in a capillary viscometer at a polymer concentration of 0.25 g/dl using aqueous 0.1M sodium sulfate as the solvent. The measurements were carried out at a temperature of 25 degrees C. Inherent viscosity (I.V.) is calculated as: I.V. = ln( t / t0 )/c where t is the polymer solution flow time through the capillary, t0 is the solvent flow time, and c is the polymer concentration. [formula]
Initial Inherent Viscosities ranged from 2.00 to 2.12 dL/g. Percentage Change was defined with the following equation: %Change=(I.V.(t)-I.V.(0))/(I.V.(0))× 100 [formula] where I.V.(0) is the initial inherent viscosity and I.V.(t) is the inherent viscosity of the polymer at time t.
Initial Inherent Viscosities range from 1.90 to 2.00 dL/g. The I.V. change is determined as previously defined.

SMILES: CC(C)(C)c1cccc(O)c1O [t-butyl catechol]
- inherent viscosity stability: equal to or better than ten times the concentration of isopropanol
